# Laboratory results taken from patent US10238633B2, “Methods for treating pulmonary emphysema using substituted 2-Aza-bicyclo[2.2.1]heptane-3-carboxylic acid (benzyl-cyano-methyl)-amides inhibitors of Cathepsin C” (Boehringer Ingelheim International GmbH, priority 2013, dated 2019).
# System: Neutrophil elastase activity in U937 cells
# Assay: Determination of neutrophil elastase activity in U937 cytosolic lysate preparation after incubation with test compound
# Format: cell-based
# Conditions: Homo sapiens, U-937, read-out: Reduction of NE-activity in U937 cells IC50
# Protocol: Determination of Neutrophil Elastase Activity in U937 Cytosolic Lysate Preparation after Incubation with Test Compound
# Optiplate 384F were purchased from PerkinElmer (Prod. No. #6007270). 24 well Nunclon cell culture plates (No. 142475) and 96 well plates (No. 267245) were from Nunc. Dimethylsulfoxid (DMSO) was from Sigma (Prod. No. D8418). Nonidet-P40 (NP40) was from USBiological (Prod. No. N3500)
# Substrate, specific for Neutrophil elastase, was from Bachem (MeOSuc-Ala-Ala-Pro-Val-AMC; Prod. No. 1-1270).
# Human neutrophil elastase was from Calbiochem (Prod. No. 324681)
# Tris-buffer (100 mM Tris; 1M NaCL; pH 7.5)
# Tris-buffer+HSA 0.1%; Human Serum Albumin from Calbiochem (Cat#. 126658)
# Serine-protease buffer (20 mM Tris; 100 mM NaCL; pH 7.5)+0.1% HSA
# Serine protease lysis buffer: 20 mM Tris-HCL; 100 mM NaCl pH 7.5; +0.2% Nonidet-P40;
# PBS: phosphate buffered saline, without Ca and Mg, from Gibco
# U937 from ECACC (Cat. No. 85011440) cultured in suspension at 37° C. and 5% CO2.
# Cell density: 0.2-1 Mio. Cells/ml.
# Medium: RPMI1640 GlutaMAX (No. 61870) with 10% FCS from Gibco
# Cell Seeding and Treatment:
# Compounds in 100% DMSO were diluted in Medium (—FCS) with 10% DMSO and further diluted according to the experiment planned.
# 20 μl of the compound solution was transferred in the respective wells of the 24 well plate and diluted with 2 ml cell suspension/well containing […] (final concentration of DMSO=0.1%). Compound dilution factor=100
# Compounds (up to 7 concentrations) were tested in triplicates with 3 wells for the DMSO 0.1% control, incubated for 48 hours without medium change at 37° C., 5% CO2 and 95% relative humidity.
# Cell Harvesting and Cell Lysate:
# Transfer the cell suspension in 2.2 ml Eppendorf cups. Separate cells from medium by centrifugation (400×g; 5 min; RT); discard the supernatant. Resuspend in 1 ml PBS; centrifugation (400×g; 5 min; RT); wash cells twice with PBS. Add 100 μl Serin lysis buffer (ice cold) to the cell pellet; resuspend the pellet and store on ice for 15 minutes. Remove debris by centrifugation at 15000×g for 10 min at 4° C. Transfer 80-100 μl lysate supernatant in 96 well plate and store immediately at −80° C.
# Neutrophil Elastase Activity Assay:
# Frozen lysates were thawn at 37° C. for 10 minutes and stored on ice. Protein content was determined with Bradford protein assay. Lysates were diluted to 0.2-0.5 mg/ml protein in serine protease buffer+HSA.
# Standard: NE (100 μg/ml stock solution in Tris-buffer; stored at −80° C.) was diluted in Tris-buffer+HSA to 750 ng/ml, and further serially diluted 1:2 for the standard curve.
# Buffer, blank, standard and lysate samples were transferred into 384 well plate
# Blank: 5 μl Tris-buffer+10 μl Tris-buffer+HSA+5 μl Substrate
# Standard: 5 μl Tris-buffer+10 μl NE (diff. conc.)+5 μl Substrate
# Lysate: 5 μl Tris-buffer+10 μl Lysat+[…] Substrate
# The increase in fluorescence (Ex360 nm/Em 460 nm) is determined over 30 minutes with a Molecular Device Spectramax M5 Fluorescence Reader. Kinetic Reduction (Vmax units/sec); 4 vmax points. The amount of neutrophil elastase (ng/ml) is calculated using the standard curve and the Spectramax software. The result is interpolated to ng/mg lysate protein using excel formula functions. […] IC50 is calculated using Graphpad Prism; nonlinear fitting (log(inhibitor) vs. response—Variable slope).
row,SMILES,IC50 [nM]
1,C[C@H]1CN(C)CCN1c1ccc(C[C@@H](C#N)NC(=O)[C@H]2N[C@@H]3CC[C@H]2C3)c(F)c1 [Example 188],4.4
2,COCCN1C(C)CN(c2ccc(C[C@@H](C#N)NC(=O)[C@H]3N[C@@H]4CC[C@H]3C4)c(F)c2)CC1C (stereo partly drawn) [Example 191],3.3
3,CC1CN(C)CCN1c1ccc(C[C@@H](C#N)NC(=O)[C@H]2N[C@@H]3CC[C@H]2C3)c(F)c1 (stereo partly drawn) [Example 192],4.1
4,N#C[C@H](Cc1ccc(N2CCC(N3CCOCC3)CC2)cc1F)NC(=O)[C@H]1N[C@@H]2CC[C@H]1C2 [Example 193],6.5
5,CC1CN(c2ccc(C[C@@H](C#N)NC(=O)[C@H]3N[C@@H]4CC[C@H]3C4)c(F)c2)C(C)CN1C (stereo partly drawn) [Example 196],5.3
6,N#C[C@H](Cc1ccc(-c2ccc(S(=O)(=O)N3CCOCC3)cc2)cc1F)NC(=O)[C@H]1N[C@@H]2CC[C@H]1C2 [Example 217],7.5
7,CN1CC=C(c2ccc(C[C@@H](C#N)NC(=O)[C@H]3N[C@@H]4CC[C@H]3C4)c(F)c2)CC1 [Example 223],3
8,CN1CCN(S(=O)(=O)c2cccc(-c3ccc(C[C@@H](C#N)NC(=O)[C@H]4N[C@@H]5CC[C@H]4C5)c(F)c3)c2)CC1 [Example 224],1
9,CN1CCN(C(=O)c2cc(-c3ccc(C[C@@H](C#N)NC(=O)[C@H]4N[C@@H]5CC[C@H]4C5)c(F)c3)cs2)CC1 [Example 225],2.8
10,N#C[C@H](Cc1ccc(-c2csc(C(=O)N3CCn4nccc4C3)c2)cc1F)NC(=O)[C@H]1N[C@@H]2CC[C@H]1C2 [Example 226],1.8
11,CC(C)N1CCN(C(=O)c2cc(-c3ccc(C[C@@H](C#N)NC(=O)[C@H]4N[C@@H]5CC[C@H]4C5)c(F)c3)cs2)CC1 [Example 227],0.9
12,COCCN1CCN(C(=O)c2cc(-c3ccc(C[C@@H](C#N)NC(=O)[C@H]4N[C@@H]5CC[C@H]4C5)c(F)c3)cs2)CC1 [Example 228],4.6
13,N#C[C@H](Cc1ccc(-c2csc(C(=O)N3CCN(C4CC4)CC3)c2)cc1F)NC(=O)[C@H]1N[C@@H]2CC[C@H]1C2 [Example 229],2.9
14,N#C[C@H](Cc1ccc(-c2csc(C(=O)N3CCN(CC(F)(F)F)CC3)c2)cc1F)NC(=O)[C@H]1N[C@@H]2CC[C@H]1C2 [Example 232],5.2
15,N#C[C@H](Cc1ccc(-c2csc(C(=O)N3CCN4CCOCC4C3)c2)cc1F)NC(=O)[C@H]1N[C@@H]2CC[C@H]1C2 (stereo partly drawn) [Example 234],6.9
16,N#C[C@H](Cc1ccc(-c2ccc(C(=O)N3CCn4nccc4C3)s2)cc1F)NC(=O)[C@H]1N[C@@H]2CC[C@H]1C2 [Example 237],9.6
17,CN1CCN(C(=O)c2coc(-c3ccc(C[C@@H](C#N)NC(=O)[C@H]4N[C@@H]5CC[C@H]4C5)c(F)c3)c2)CC1 [Example 241],5.3
18,CN1CCN(C(=O)c2cccc(-c3ccc(C[C@@H](C#N)NC(=O)[C@H]4N[C@@H]5CC[C@H]4C5)c(F)c3)c2)CC1 [Example 245],3.8
19,CN1CCCN(c2ccc(C[C@@H](C#N)NC(=O)[C@H]3N[C@@H]4CC[C@H]3C4)c(F)c2)CC1 [Example 247],8
20,N#C[C@H](Cc1ccc(N2CCN3CCOC[C@@H]3C2)cc1F)NC(=O)[C@H]1N[C@@H]2CC[C@H]1C2 [Example 249],16.5
21,N#C[C@H](Cc1ccc(N2CCN3CCOC[C@H]3C2)cc1F)NC(=O)[C@H]1N[C@@H]2CC[C@H]1C2 [Example 250],11.5
22,CNc1nc2cc(-c3ccc(C[C@@H](C#N)NC(=O)[C@H]4N[C@@H]5CC[C@H]4C5)c(F)c3)ccc2n1C [Example 253],5.5
23,Cn1cc(-c2ccc(C[C@@H](C#N)NC(=O)[C@H]3N[C@@H]4CC[C@H]3C4)c(F)c2)ccc1=O [Example 254],30.5
24,CC(C)N1CCCN(c2ccc(C[C@@H](C#N)NC(=O)[C@H]3N[C@@H]4CC[C@H]3C4)c(F)c2)CC1 [Example 267],2.7

row,SMILES,IC50 [nM]
1,CO[C@@H]1C[C@@H]2CN(c3ccc(C[C@@H](C#N)NC(=O)[C@H]4N[C@@H]5CC[C@H]4C5)c(F)c3)CCN2C1 [Example 269],5.5
2,N#C[C@H](Cc1ccc(N2CCN3CCC[C@H]3C2)cc1F)NC(=O)[C@H]1N[C@@H]2CC[C@H]1C2 [Example 270],1.4
3,CCN1CCN(c2ccc(C[C@@H](C#N)NC(=O)[C@H]3N[C@@H]4CC[C@H]3C4)c(F)c2)CC1 [Example 272],2.4
4,CN(C)CCCN1C(=O)Cc2ccc(-c3ccc(C[C@@H](C#N)NC(=O)[C@H]4N[C@@H]5CC[C@H]4C5)c(F)c3)cc21 [Example 277],3.6
5,CN(C)CCN1C(=O)Cc2ccc(-c3ccc(C[C@@H](C#N)NC(=O)[C@H]4N[C@@H]5CC[C@H]4C5)c(F)c3)cc21 [Example 278],1
6,CN(C)CCN1C(=O)Cc2cc(-c3ccc(C[C@@H](C#N)NC(=O)[C@H]4N[C@@H]5CC[C@H]4C5)c(F)c3)ccc21 [Example 279],1.9
7,N#C[C@H](Cc1ccc(C2=CCN3CCOCC3C2)cc1F)NC(=O)[C@H]1N[C@@H]2CC[C@H]1C2 (stereo partly drawn) [Example 281],1.9
8,N#C[C@H](Cc1ccc(C2=CC3COCCN3CC2)cc1F)NC(=O)[C@H]1N[C@@H]2CC[C@H]1C2 (stereo partly drawn) [Example 282],3.4
9,N#C[C@H](Cc1ccc([C@@H]2CCN3CCOC[C@H]3C2)cc1F)NC(=O)[C@H]1N[C@@H]2CC[C@H]1C2 [Example 283],4.5
10,N#C[C@H](Cc1ccc([C@H]2CCN3CCOC[C@H]3C2)cc1F)NC(=O)[C@H]1N[C@@H]2CC[C@H]1C2 [Example 284],5.3
11,CN1CCN(C(=O)c2ccc(-c3ccc(C[C@@H](C#N)NC(=O)[C@H]4N[C@@H]5CC[C@H]4C5)c(F)c3)o2)CC1 [Example 289],3.9
12,N#CC(Cc1cc2c(=O)[nH]c3cc(F)ccc3c2cc1F)NC(=O)[C@H]1N[C@@H]2CC[C@H]1C2 (stereo partly drawn) [Example 293],4.6
13,N#CC(Cc1cc2c(=O)[nH]c3ccccc3c2cc1F)NC(=O)[C@H]1N[C@@H]2CC[C@H]1C2 (stereo partly drawn) [Example 294],7.8
14,N#CC(Cc1cc2c(=O)[nH]c3ccc(F)cc3c2cc1F)NC(=O)[C@H]1N[C@@H]2CC[C@H]1C2 (stereo partly drawn) [Example 295],8.6
15,N#CC(Cc1ccc2c(c1)c(=O)[nH]c1c(F)c(F)ccc12)NC(=O)[C@H]1N[C@@H]2CC[C@H]1C2 (stereo partly drawn) [Example 300],8.9
16,Cn1c(=O)c2cc(CC(C#N)NC(=O)[C@H]3N[C@@H]4CC[C@H]3C4)ccc2c2ccc(C#N)cc21 (stereo partly drawn) [Example 303],8.3
17,"CN1CCC(Oc2ccc(C[C@@H](C#N)NC(=O)[C@H]3N[C@@H]4CC[C@H]3C4)c(F)c2)CC1 [Example 319, (1S,2S,4R)—N-[(1S)-1-cyano-2-[2-fluoro-4-[(1-methyl-4-piperidyl)oxy]phenyl]ethyl]-3-azabicyclo[2.2.1]heptane-2-carboxamide]",9.3
18,CCN1CC=C(c2ccc(C[C@@H](C#N)NC(=O)[C@H]3N[C@@H]4CC[C@H]3C4)c(F)c2)CC1 [Example 320],3.7
19,N#C[C@H](Cc1cc2c(=O)[nH]c3ccccc3c2cc1F)NC(=O)[C@H]1N[C@@H]2CC[C@H]1C2 [Example 322],2.1
20,N#C[C@H](Cc1cc2c(=O)[nH]c3cc(F)ccc3c2cc1F)NC(=O)[C@H]1N[C@@H]2CC[C@H]1C2 [Example 323],1.4
21,N#C[C@H](Cc1cc2c(=O)[nH]c3c(F)c(F)ccc3c2cc1F)NC(=O)[C@H]1N[C@@H]2CC[C@H]1C2 [Example 324],1.3
22,N#Cc1cc(F)c2[nH]c(=O)c3cc(C[C@@H](C#N)NC(=O)[C@H]4N[C@@H]5CC[C@H]4C5)c(F)cc3c2c1 [Example 325],4.7
23,Cn1c(=O)c2cc(C[C@@H](C#N)NC(=O)[C@H]3N[C@@H]4CC[C@H]3C4)c(F)cc2c2ccccc21 [Example 326],1.9
24,CN1CC2CCC(C1)N2c1ccc(C[C@@H](C#N)NC(=O)[C@H]2N[C@@H]3CC[C@H]2C3)c(F)c1 [Example 328],1.2
